Measured values: the supplement of paper PMC13207355
± gives the standard deviation of the averaged measurements.

Experiments:
Conditions in all cases: exposure time: 72 h
E13 [1] = patient-derived glioblastoma stem cells of classical subtype; test: surviving fraction (nuclei count normalised to DMSO); higher = more cells surviving (less toxic)
E21 [2] = patient-derived glioblastoma stem cells of mesenchymal subtype; test: as above
E28 [3] = patient-derived glioblastoma stem cells of classical subtype; test: as above
E34 [4] = patient-derived glioblastoma stem cells of proneural subtype; test: as above
E57 [5] = patient-derived glioblastoma stem cells of mesenchymal subtype; test: as above
FT3469 [6] = normal neural stem cell line; test: as above
E13 [7] = test: phenotypic distance (Euclidean, principal components) from DMSO controls (arbitrary units); higher = stronger morphological change
E21 [8] = test: as above
E28 [9] = test: as above
E34 [10] = test: as above
E57 [11] = test: as above
FT3469 [12] = test: as above
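Wherever phenotypic distance (Euclidean, principal components) from DMSO controls is given: cell Painting imaging in 384-well plates, CellProfiler features reduced to at least 20 principal components, Euclidean distance versus same-plate DMSO vehicle wells (0.1% v/v), median over six images per well.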
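Wherever surviving fraction (nuclei count normalised to DMSO) is given: nuclei counted by high-content imaging of Hoechst-stained cells in laminin-coated 384-well plates, relative to 0.1% DMSO vehicle wells, with staurosporine as cell-death control.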

In the case of `O=C(C1CC1)N1CC[C@@H](Cc2n[nH]c(=O)n2-c2ccc(-c3ccc4occc4c3)cc2)C1`, the surviving fraction (E13 [1]; 4.1 nM) is reported as 0.7243 ± 0.004, the surviving fraction (E13 [1]; 12.3 nM) is reported as 0.771 ± 0.062 and the surviving fraction (E13 [1]; 37 nM) is reported as 0.726 ± 0.016. The surviving fraction (E13 [1]; 111.1 nM) was 0.671 ± 0.097, the surviving fraction (E13 [1]; 333.3 nM) was 0.641 ± 0.11 and the surviving fraction (E13 [1]; 1000 nM) was 0.744 ± 0.052. It also gave a surviving fraction (E13 [1]; 3000 nM) of 0.66 ± 0.015, a surviving fraction (E21 [2]; 4.1 nM) of 0.835 ± 0.082 and a surviving fraction (E21 [2]; 12.3 nM) of 0.849 ± 0.024. It also gave a surviving fraction (E21 [2]; 37 nM) of 0.804 ± 0.023, a surviving fraction (E21 [2]; 111.1 nM) of 0.777 ± 0.015 and a surviving fraction (E21 [2]; 333.3 nM) of 0.749 ± 0.045. It also gave a surviving fraction (E21 [2]; 1000 nM) of 0.789 ± 0.013, a surviving fraction (E21 [2]; 3000 nM) of 0.732 ± 0.034 and a surviving fraction (E28 [3]; 4.1 nM) of 0.827 ± 0.081. It also gave a surviving fraction (E28 [3]; 12.3 nM) of 0.792 ± 0.071, a surviving fraction (E28 [3]; 37 nM) of 0.771 ± 0.17 and a surviving fraction (E28 [3]; 111.1 nM) of 0.752 ± 0.061. It also gave a surviving fraction (E28 [3]; 333.3 nM) of 0.786 ± 0.028, a surviving fraction (E28 [3]; 1000 nM) of 0.662 ± 0.059 and a surviving fraction (E28 [3]; 3000 nM) of 0.704 ± 0.12. The surviving fraction (E34 [4]; 4.1 nM) was 0.853 ± 0.12, the surviving fraction (E34 [4]; 12.3 nM) was 0.872 ± 0.089 and the surviving fraction (E34 [4]; 37 nM) was 0.906 ± 0.0092. The surviving fraction (E34 [4]; 111.1 nM) was 0.895 ± 0.082, the surviving fraction (E34 [4]; 333.3 nM) was 0.879 ± 0.17 and the surviving fraction (E34 [4]; 1000 nM) was 0.864 ± 0.15. It also gave a surviving fraction (E34 [4]; 3000 nM) of 0.811 ± 0.14, a surviving fraction (E57 [5]; 4.1 nM) of 0.616 ± 0.019 and a surviving fraction (E57 [5]; 12.3 nM) of 0.62 ± 0.043. The surviving fraction (E57 [5]; 37 nM) was 0.578 ± 0.037, the surviving fraction (E57 [5]; 111.1 nM) was 0.574 ± 0.036 and the surviving fraction (E57 [5]; 333.3 nM) was 0.526 ± 0.014. For the same molecule, the surviving fraction (E57 [5]; 1000 nM) was 0.53 ± 0.047, the surviving fraction (E57 [5]; 3000 nM) was 0.469 ± 0.066 and the surviving fraction (FT3469 [6]; 4.1 nM) was 0.786 ± 0.1. The surviving fraction (FT3469 [6]; 12.3 nM) was 0.874 ± 0.011, the surviving fraction (FT3469 [6]; 37 nM) was 0.823 ± 0.1 and the surviving fraction (FT3469 [6]; 111.1 nM) was 0.77 ± 0.027. It also gave a surviving fraction (FT3469 [6]; 333.3 nM) of 0.783 ± 0.013, a surviving fraction (FT3469 [6]; 1000 nM) of 0.769 ± 0.035 and a surviving fraction (FT3469 [6]; 3000 nM) of 0.666 ± 0.019. For the same molecule, the phenotypic distance (E13 [7]; 4.1 nM) was 3.07 ± 0.076, the phenotypic distance (E13 [7]; 12.3 nM) was 3.018 ± 0.0044 and the phenotypic distance (E13 [7]; 37 nM) was 3.95 ± 1.1. It also gave a phenotypic distance (E13 [7]; 111.1 nM) of 3.29 ± 0.25, a phenotypic distance (E13 [7]; 333.3 nM) of 3.49 ± 0.32 and a phenotypic distance (E13 [7]; 1000 nM) of 3.21 ± 0.064. For the same molecule, the phenotypic distance (E13 [7]; 3000 nM) was 2.99 ± 0.11, the phenotypic distance (E21 [8]; 4.1 nM) was 2.24 ± 0.25 and the phenotypic distance (E21 [8]; 12.3 nM) was 2.337 ± 0.018. The phenotypic distance (E21 [8]; 37 nM) was 2.41 ± 0.11, the phenotypic distance (E21 [8]; 111.1 nM) was 2.65 ± 0.17 and the phenotypic distance (E21 [8]; 333.3 nM) was 2.64 ± 0.24. For the same molecule, the phenotypic distance (E21 [8]; 1000 nM) was 2.59 ± 0.029, the phenotypic distance (E21 [8]; 3000 nM) was 2.62 ± 0.2 and the phenotypic distance (E28 [9]; 4.1 nM) was 2.86 ± 0.79. The phenotypic distance (E28 [9]; 12.3 nM) was 3.11 ± 0.037, the phenotypic distance (E28 [9]; 37 nM) was 3.37 ± 0.27 and the phenotypic distance (E28 [9]; 111.1 nM) was 3.59 ± 0.14. It also gave a phenotypic distance (E28 [9]; 333.3 nM) of 3.55 ± 0.12, a phenotypic distance (E28 [9]; 1000 nM) of 3.85 ± 0.29 and a phenotypic distance (E28 [9]; 3000 nM) of 3.76 ± 0.34. For the same molecule, the phenotypic distance (E34 [10]; 4.1 nM) was 1.76 ± 0.44, the phenotypic distance (E34 [10]; 12.3 nM) was 2.04 ± 0.054 and the phenotypic distance (E34 [10]; 37 nM) was 2.26 ± 0.24. It also gave a phenotypic distance (E34 [10]; 111.1 nM) of 2.59 ± 0.22, a phenotypic distance (E34 [10]; 333.3 nM) of 2.265 ± 0.0027 and a phenotypic distance (E34 [10]; 1000 nM) of 2.464 ± 7.1e-05. The phenotypic distance (E34 [10]; 3000 nM) was 2.5 ± 0.35, the phenotypic distance (E57 [11]; 4.1 nM) was 3.85 ± 0.28 and the phenotypic distance (E57 [11]; 12.3 nM) was 3.99 ± 0.17. It also gave a phenotypic distance (E57 [11]; 37 nM) of 4.34 ± 0.098, a phenotypic distance (E57 [11]; 111.1 nM) of 4.35 ± 0.073 and a phenotypic distance (E57 [11]; 333.3 nM) of 4.55 ± 0.096. For the same molecule, the phenotypic distance (E57 [11]; 1000 nM) was 4.45 ± 0.051, the phenotypic distance (E57 [11]; 3000 nM) was 4.65 ± 0.083 and the phenotypic distance (FT3469 [12]; 4.1 nM) was 2.28 ± 0.66. For the same molecule, the phenotypic distance (FT3469 [12]; 12.3 nM) was 2.24 ± 0.057, the phenotypic distance (FT3469 [12]; 37 nM) was 2.6 ± 0.25 and the phenotypic distance (FT3469 [12]; 111.1 nM) was 3.07 ± 0.27. The phenotypic distance (FT3469 [12]; 333.3 nM) was 2.8 ± 0.58, the phenotypic distance (FT3469 [12]; 1000 nM) was 3.17 ± 0.27 and the phenotypic distance (FT3469 [12]; 3000 nM) was 3.52 ± 0.046.
